We go through four compounds from patent US9771379B2, “N-(2-(2-amino-6-substituted-4,4a,5,6-tetrahydropyrano[3,4-d][1,3]OXAZIN-8a(8H)-yl)-thiazol-4-yl) amides” (Pfizer Inc., priority 2015, dated 2017).

For this experiment, the target named is full length human BACE1 (Homo sapiens (Human), UniProt P56817). Nature of the experiment: BACE1 Scintillation Proximity Binding Assay (SPA). Conditions: radioligand displacement, HEK cell membranes, pH 6.0. The protocol: BACE1 Scintillation Proximity Binding Assay (SPA): The BACE1 binding assay measured beta-site amyloid precursor protein-cleaving enzyme (BACE) binding as a decrease in the counts of radioligand bound in a scintillation proximity assay (SPA). […] Full length human BACE1 over-expressed in HEK cells was prepared by Pfizer scientists. Frozen stock cell paste was reacted in 50 mM sodium acetate buffer (pH=6.0) containing 3H-(4aR,6R,8aS)-8a-(2,4-difluorophenyl)-6-(1-methyl-1H-pyrazol-4-yl)-4,4a,5,6,8,8a-hexahydropyrano[3,4-d][1,3]thiazin-2-amine ligand, SPA bead and 60 μM to 600 pM of test compound in an assay volume of 27 uL. The compound plate also contained positive (BACE inhibitor) and negative (DMSO) control wells. The binding was carried out at room temperature for 30 minutes and then the plates were read on a TriLux Microbeta reader to determine the number of counts bound. The raw data was converted to percent effect compared to positive and negative control wells and the compound concentrations and % effect values for tested compounds were plotted to determine the 50% effect (1050) with a four-parameter logistic dose response equation.
Background: Scintillation proximity formats need no separation of bound from free tracer.

Chain of full length human BACE1 (P56817 46-501): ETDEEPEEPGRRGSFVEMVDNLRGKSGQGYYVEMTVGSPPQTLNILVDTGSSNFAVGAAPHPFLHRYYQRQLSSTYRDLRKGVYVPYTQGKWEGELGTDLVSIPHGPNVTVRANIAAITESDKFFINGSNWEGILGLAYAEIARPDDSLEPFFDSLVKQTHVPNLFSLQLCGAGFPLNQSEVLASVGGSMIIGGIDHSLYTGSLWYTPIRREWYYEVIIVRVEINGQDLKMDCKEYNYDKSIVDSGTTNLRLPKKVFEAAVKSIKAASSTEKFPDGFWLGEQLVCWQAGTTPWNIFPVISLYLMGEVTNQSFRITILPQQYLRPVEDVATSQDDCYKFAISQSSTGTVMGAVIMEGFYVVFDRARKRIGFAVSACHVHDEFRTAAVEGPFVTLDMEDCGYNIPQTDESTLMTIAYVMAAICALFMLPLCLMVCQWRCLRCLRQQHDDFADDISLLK

In the case of `NC1=N[C@@]2(c3nc(NC(=O)c4cnc(OC(F)F)cn4)cs3)CO[C@@H](C(F)(F)F)C[C@H]2CO1` [Example 20, N-{2-[(4aR,6R,8aR)-2-amino-6-(trifluoromethyl)-4,4a,5,6-tetrahydropyrano [3,4-d][1,3]oxazin-8a(8H)-yl]-1,3-thiazol-4-yl}-5-(difluoromethoxy)pyrazine-2-carboxamide], the 50% inhibitory concentration (IC50) turned out to be 124 nM. In other words, the sub-micromolar range.

As to `Cc1cc(C#N)cnc1C(=O)Nc1csc([C@]23CO[C@@H](C(F)(F)F)C[C@H]2COC(N)=N3)n1` [Example 21, N-{2-[(4aR,6R,8aR)-2-amino-6-(trifluoromethyl)-4,4a,5,6-tetrahydropyrano [3,4-d][1,3]oxazin-8a(8H)-yl]-1,3-thiazol-4-yl}-5-cyano-3-methylpyridine-2-carboxamide], the IC50 stood at 5 nM.

In the case of `Cc1nc(OC(F)F)cnc1C(=O)Nc1csc([C@]23CO[C@@H](C(F)(F)F)C[C@H]2COC(N)=N3)n1` [Example 22, N-{2-[(4aR,6R,8aR)-2-amino-6-(trifluoromethyl)-4,4a,5,6-tetrahydropyrano [3,4-d][1,3]oxazin-8a(8H)-yl]-1,3-thiazol-4-yl}-5-(difluoromethoxy)-3-methyl pyrazine-2-carboxamide], the concentration for half-maximal inhibition (IC50) was 13 nM. This IC50 is about 2.6-fold higher than that of the compound before.

In the case of `COc1cnc(C(=O)Nc2csc([C@]34CO[C@@H](C(F)(F)F)C[C@H]3COC(N)=N4)n2)c(C)n1` [Example 23, N-{2-[(4aR,6R,8aR)-2-amino-6-(trifluoromethyl)-4,4a,5,6-tetrahydropyrano [3,4-d][1,3]oxazin-8a(8H)-yl]-1,3-thiazol-4-yl}-5-methoxy-3-methylpyrazine-2-carboxamide], the IC50 stood at 162 nM.

The term IC50 denotes the midpoint of a concentration-inhibition curve. A high value points to weaker potency in that assay.
